Measured values published in the NIST ThermoML archive (doi:10.1021/je500845d).
Numbers after ± are expanded uncertainties.

Columns and labels:
[1] = Crystal; DTA
[2] = Molar enthalpy of transition or fusion; settings: Crystal; DSC

Normal melting temperature [1]	Molar enthalpy of transition or fusion [2]	Compound
131.5 ± 1 °C	5.35 ± 0.311 kcal/mol	Cc1ccc([C@H](O)C(=O)O)cc1 [(S)-2-hydroxy-2-(p-tolyl)acetic acid]
127.6 ± 1 °C	4.11 ± 0.311 kcal/mol	O=C(O)[C@@H](O)c1ccc(Br)cc1 [(S)-2-(4-bromophenyl)-2-hydroxyacetic acid]
119.4 ± 1 °C	5.35 ± 0.311 kcal/mol	O=C(O)[C@@H](O)c1ccccc1Br [(S)-2-(2-bromophenyl)-2-hydroxyacetic acid]
132.8 ± 1 °C	4.8 ± 0.311 kcal/mol	O=C(O)[C@@H](O)c1ccc(F)cc1Cl [(S)-2-(2-chloro-4-fluorophenyl)-2-hydroxyacetic acid]
103.1 ± 1 °C	5.5 ± 0.311 kcal/mol	O=C(O)[C@@H](O)c1cccc(Br)c1 [(S)-2-(3-bromophenyl)-2-hydroxyacetic acid]
109.7 ± 1 °C	6.98 ± 0.311 kcal/mol	Cc1cccc([C@H](O)C(=O)O)c1 [(S)-2-hydroxy-2-(m-tolyl)acetic acid]
107.8 ± 1 °C	3.61 ± 0.287 kcal/mol	O=C(O)[C@@H](O)c1ccc(Cl)cc1F [(S)-2-(4-chloro-2-fluorophenyl)-2-hydroxyacetic acid]

Second part, the compound before the results:

Compound	Normal melting temperature [1]	Molar enthalpy of transition or fusion [2]
O=C(O)C(O)c1ccc(Cl)cc1F (stereo not given) [2-(4-chloro-2-fluorophenyl)-2-hydroxyacetic acid]	90.5 ± 1 °C	4.23 ± 0.311 kcal/mol
O=C(O)C(O)c1ccc(Br)cc1 (stereo not given) [2-(4-bromophenyl)-2-hydroxyacetic acid]	118.1 ± 1 °C	4.25 ± 0.311 kcal/mol
O=C(O)C(O)c1cccc(I)c1 (stereo not given) [2-hydroxy-2-(3-iodophenyl)acetic acid]	97.0 ± 1 °C	5.88 ± 0.311 kcal/mol
O=C(O)C(O)c1ccc(Cl)cc1 (stereo not given) [2-(4-chlorophenyl)-2-hydroxyacetic acid]	120.1 ± 1 °C	3.87 ± 0.311 kcal/mol
O=C(O)[C@@H](O)c1ccc(Cl)cc1 [(S)-2-(4-chlorophenyl)-2-hydroxyacetic acid]	119.6 ± 1 °C	6.48 ± 0.311 kcal/mol
O=C(O)C(O)c1cccc(Br)c1 (stereo not given) [2-(3-bromophenyl)-2-hydroxyacetic acid]	119.6 ± 1 °C	7.19 ± 0.311 kcal/mol
Cc1cccc(C(O)C(=O)O)c1 (stereo not given) [2-hydroxy-2-(m-tolyl)acetic acid]	92.4 ± 1 °C	6.12 ± 0.311 kcal/mol
Cc1ccc(C(O)C(=O)O)cc1 (stereo not given) [2-hydroxy-2-(p-tolyl)acetic acid]	143.8 ± 1 °C	6.12 ± 0.311 kcal/mol
O=C(O)C(O)c1ccccc1I (stereo not given) [2-hydroxy-2-(2-iodophenyl)acetic acid]	109.0 ± 1 °C	5.98 ± 0.311 kcal/mol
O=C(O)C(O)c1ccc(I)cc1 (stereo not given) [2-hydroxy-2-(4-iodophenyl)acetic acid]	142.2 ± 1 °C	7.27 ± 0.311 kcal/mol
O=C(O)C(O)c1ccccc1Br (stereo not given) [2-(2-bromophenyl)-2-hydroxyacetic acid]	86.8 ± 1 °C	5.33 ± 0.311 kcal/mol
Cc1ccccc1C(O)C(=O)O (stereo not given) [2-hydroxy-2-(o-tolyl)acetic acid]	103.8 ± 1 °C	5.14 ± 0.311 kcal/mol
O=C(O)C(O)c1ccc(F)cc1Cl (stereo not given) [2-chloro-4-fluoromandelic acid]	97.6 ± 1 °C	4.35 ± 0.311 kcal/mol
